Test results reported in US20220264878A1, “HERBICIDAL COMPOSITION CONTAINING R-TYPE PYRIDYLOXY CARBOXYLIC ACID DERIVATIVE AND USE THEREOF” (Qingdao Kingagroot Chemical Compound Co., Ltd., priority 2019, published 2022).
Like-named read-outs stand apart in the source and are kept apart here.

Tests used:
Echinochloa caudate = experiment: Post-emergence foliage spray, pot culture, fresh weight inhibition (Tables 1-48, 51-98, 101-148; 24 days); type: in vivo; conditions: for Control effect (%) of B applied alone in corresponding dose: Table 86
Method: (§1) The above weeds were cultivated by a pot culture method. […] Full and uniform weed seeds were selected, soaked in warm water at 25° C. for 6 hours, and germinated in a 28° C. biochemical incubator (darkness). The weed seeds that had just germinatedwere evenly placed on the surface of the soil and then covered with 0.5-1 cm soil according to the sizes of seeds.
(§2) The technical materials were all dissolved in acetone, and diluted with an aqueous solution containing 0.1% emulsifier Tween-80. The dilution is performed as required.
(§3) A ratio of the active ingredient A to the active ingredient B and amounts thereof in each group depends on the characteristics and toxicity of the two agents, as well as the main application purpose of a corresponding formulation. Based on the pre-tests in this study, the dosage of the active ingredient A and B applied alone and in combination were shown in the tables. Water containing the solvent and emulsifier same with the above groups but free of the agents was used as a blank control.
(§4) In the stage of weeds with 3˜4 leaves, the weeds were thinned out to maintain 15 weeds per pot and 45 weeds for each treatment, then continued to be cultured to 5˜6 leaves stage of grassy weeds, 6˜7 leaves stage of broadleaf weeds, and treated.
(§5) The well-cultured weeds were evenly placed on a platform with an area of 0.5 m^2, and a solution of agents was sprayed on the stems and leaves thereof by the 3WP-2000-type walking spray tower at a dosage of 450 kg/ha and at a spray pressure of 0.3 MPa. After all the solution was sprayed, the valve was closed. After 30 seconds, the door of the spray tower was opened, and the nutritional bowl was taken out. Then the valve was opened, and the spray tube was cleaned by spraying 50 ml of water.
(§6) A pot-culture method was employed. For the cultivation of weeds, please refer to the Section 1.1), and “Pesticide guidelines for laboratory bioactivity tests—herbicides”. As to a method for applying agents, please refer to the section 2.3.2), that is, a foliage treatment was employed. After the treatment, the weeds were routinely cultured in a greenhouse.
(§7) A method for investigating absolute number was employed, wherein whole seedlings of survival weeds were cut off with a blade along the soil surface, and the fresh weight of the weeds was weighed with an analytical balance. For dead weeds, the fresh weight thereof was zero.
(§8) Wherein, in the formula, X represented the fresh weight inhibition rate of the active ingredient A in a dosage of P, and Y represented the fresh weight inhibition rate of the active ingredient B in a dosage of Q.

Echinochloa oryzoides = experiment: as above; type: in vivo
Method: as §1, §2, §3, §4, §5, §6, §7, §8

[1] = Echinochloa, 576 h, read-out: Control effect (%) of B applied alone in corresponding dose
[2] = Echinochloa oryzoides, 576 h, read-out: Control effect (%) of B applied alone in corresponding dose

Compound: CCNc1nc(Cl)nc(NC(C)C)n1 [atrazine]
- pest or weed control at 75 g/ha (Echinochloa caudate; Echinochloa, 576 h, atrazine 75 g a.i./ha, read-out: Control effect (%) of B applied alone in corresponding dose): 3.8%
- pest or weed control at 150 g/ha (Echinochloa caudate; Echinochloa, 576 h, atrazine 150 g a.i./ha, read-out: Control effect (%) of B applied alone in corresponding dose): 13.5%
- pest or weed control at 300 g/ha (Echinochloa caudate; Echinochloa, 576 h, atrazine 300 g a.i./ha, read-out: Control effect (%) of B applied alone in corresponding dose): 24.8%
- pest or weed control at 600 g/ha (Echinochloa caudate; Echinochloa, 576 h, atrazine 600 g a.i./ha, read-out: Control effect (%) of B applied alone in corresponding dose): 66.5%
- pest or weed control at 75 g/ha (Echinochloa oryzoides; Echinochloa oryzoides, 576 h, B 75 g a.i./ha, read-out: Control effect (%) of B applied alone in corresponding dose): 6.7%
- pest or weed control at 150 g/ha (Echinochloa oryzoides; Echinochloa oryzoides, 576 h, B 150 g a.i./ha, read-out: Control effect (%) of B applied alone in corresponding dose): 21.7%
- pest or weed control at 300 g/ha (Echinochloa oryzoides; Echinochloa oryzoides, 576 h, B 300 g a.i./ha, read-out: Control effect (%) of B applied alone in corresponding dose): 26.4%
- pest or weed control at 600 g/ha (Echinochloa oryzoides; Echinochloa oryzoides, 576 h, B 600 g a.i./ha, read-out: Control effect (%) of B applied alone in corresponding dose): 61.8%

Compound: CS(=O)(=O)c1ccc(C(=O)C2=C(Sc3ccccc3)C3CCC(C3)C2=O)c(Cl)c1 (stereo not drawn) [benzobicylon]
- Control effect (%) of B applied alone in corresponding dose (Echinochloa caudate; 37.5 g a.i./ha): 2.1%
- Control effect (%) of B applied alone in corresponding dose (Echinochloa caudate; 75 g a.i./ha): 11.7%
- Control effect (%) of B applied alone in corresponding dose (Echinochloa caudate; 150 g a.i./ha): 43.3%
- Control effect (%) of B applied alone in corresponding dose (Echinochloa caudate; 300 g a.i./ha): 54.4%
- Control effect (%) of B applied alone in corresponding dose (Echinochloa oryzoides; B 37.5 g a.i./ha): 9.3%
- Control effect (%) of B applied alone in corresponding dose (Echinochloa oryzoides; B 75 g a.i./ha): 18.0%
- Control effect (%) of B applied alone in corresponding dose (Echinochloa oryzoides; B 150 g a.i./ha): 46.6%
- Control effect (%) of B applied alone in corresponding dose (Echinochloa oryzoides; B 300 g a.i./ha): 57.3%

Compound: CCSC(C)CC1CC(=O)C(/C(CC)=N/OC/C=C/Cl)=C(O)C1 (stereo not drawn) [clethodim]
- pest or weed control at 7.5 g/ha (Echinochloa caudate; [1]): 3.4%
- pest or weed control at 15 g/ha (Echinochloa caudate; [1]): 27%
- pest or weed control at 30 g/ha (Echinochloa caudate; [1]): 43.8%
- pest or weed control at 60 g/ha (Echinochloa caudate; [1]): 67.4%
- pest or weed control at 7.5 g/ha (Echinochloa oryzoides; [2]): 6.7%
- pest or weed control at 15 g/ha (Echinochloa oryzoides; [2]): 19%
- pest or weed control at 30 g/ha (Echinochloa oryzoides; [2]): 37.8%
- pest or weed control at 60 g/ha (Echinochloa oryzoides; [2]): 62.7%

Compound: CC1(C)CON(Cc2ccccc2Cl)C1=O [clomazone]
- pest or weed control at 45 g/ha (Echinochloa caudate; Echinochloa, 576 h, Table 89, 45 g a.i./ha, read-out: Control effect (%) of B applied alone in corresponding dose): 8.6%
- pest or weed control at 90 g/ha (Echinochloa caudate; Echinochloa, 576 h, Table 89, 90 g a.i./ha, read-out: Control effect (%) of B applied alone in corresponding dose): 19%
- pest or weed control at 180 g/ha (Echinochloa caudate; Echinochloa, 576 h, Table 89, 180 g a.i./ha, read-out: Control effect (%) of B applied alone in corresponding dose): 47.7%
- pest or weed control at 360 g/ha (Echinochloa caudate; Echinochloa, 576 h, Table 89, 360 g a.i./ha, read-out: Control effect (%) of B applied alone in corresponding dose): 70.1%
- pest or weed control at 45 g/ha (Echinochloa oryzoides; Echinochloa oryzoides, 576 h, B 45 g a.i./ha, read-out: Control effect (%) of B applied alone in corresponding dose): 8.6%
- pest or weed control at 90 g/ha (Echinochloa oryzoides; Echinochloa oryzoides, 576 h, B 90 g a.i./ha, read-out: Control effect (%) of B applied alone in corresponding dose): 12.9%
- pest or weed control at 180 g/ha (Echinochloa oryzoides; Echinochloa oryzoides, 576 h, B 180 g a.i./ha, read-out: Control effect (%) of B applied alone in corresponding dose): 50.9%
- pest or weed control at 360 g/ha (Echinochloa oryzoides; Echinochloa oryzoides, 576 h, B 360 g a.i./ha, read-out: Control effect (%) of B applied alone in corresponding dose): 72.1%

Compound: CCCCOC(=O)[C@@H](C)Oc1ccc(Oc2ccc(C#N)cc2F)cc1 [cyhalofop-butyl]
- pest or weed control at 9.375 g/ha (Echinochloa caudate; [1]): 5.9%
- pest or weed control at 18.75 g/ha (Echinochloa caudate; [1]): 11.4%
- pest or weed control at 37.5 g/ha (Echinochloa caudate; [1]): 29.9%
- pest or weed control at 75 g/ha (Echinochloa caudate; [1]): 69.6%
- pest or weed control at 9.375 g/ha (Echinochloa oryzoides; [2]): 5.5%
- pest or weed control at 18.75 g/ha (Echinochloa oryzoides; [2]): 15%
- pest or weed control at 37.5 g/ha (Echinochloa oryzoides; [2]): 32.1%
- pest or weed control at 75 g/ha (Echinochloa oryzoides; [2]): 63.5%

Compound: CN(C)C(=O)Nc1ccc(Cl)c(Cl)c1 [diuron]
- pest or weed control at 75 g/ha (Echinochloa caudate; [1]): 3%
- pest or weed control at 150 g/ha (Echinochloa caudate; [1]): 16.5%
- pest or weed control at 300 g/ha (Echinochloa caudate; [1]): 28.6%
- pest or weed control at 600 g/ha (Echinochloa caudate; [1]): 52.2%
- pest or weed control at 75 g/ha (Echinochloa oryzoides; [2]): 4.1%
- pest or weed control at 150 g/ha (Echinochloa oryzoides; [2]): 14%
- pest or weed control at 300 g/ha (Echinochloa oryzoides; [2]): 31.3%
- pest or weed control at 600 g/ha (Echinochloa oryzoides; [2]): 56.2%
